As a reminder, the AC50 is the concentration at which the activity in the assay is half-maximal.

Active and inactive are the calls of the source. No rule for the calls is given here. A value given as a limit tells only on which side of the number the result lay.

The assay can be described thus: non-covalent RecA intein splicing inhibitors, dose response, biochemical, cell-free, fluorescence, secondary screen (AID 449750).
`COc1cc(/C=C/c2sc3ccccc3[n+]2CCCS(=O)(=O)[O-])ccc1O`: the AC50 is > 38 µM (inactive).
With `Cc1sc2ncnc(Sc3nnnn3-c3ccccc3)c2c1C`, the AC50 is > 38 µM (inactive).
Regarding `O=C(CCN1C(=O)/C(=C\c2ccccc2F)SC1=S)Nc1ccc(C(=O)O)c(O)c1`, the concentration at half-maximal activity (AC50) is 14.7 µM.
For `Cc1onc(-c2ccccc2)c1-c1nc2cc(Cl)ccc2c(=O)o1` the value was > 38 µM (inactive).
For `COc1cc(C=C2C(=O)c3ccccc3C2=O)ccc1O` the value was > 38 µM (inactive).
Take `O=C(CSc1nnc(-c2ccccc2Cl)o1)Oc1ccc(Br)cc1`: the AC50 was > 38 µM (inactive).
For `O=C(Cc1ccccc1)NC1(O)C(=O)c2ccccc2C1=O` the value was 7.01 µM; for `CN1CCN(Cc2cc(=O)oc3ccc(Cl)cc23)CC1`, > 38 µM (inactive); for `Cc1[nH]nc2c1C(c1cccs1)C(C#N)=C(N)O2` (configuration not stated), > 38 µM (inactive).
As for `CCOC(=O)/C=c1\s/c(=C(\C#N)C(N)=O)n(-c2ccccc2)c1=O`, the AC50 was > 38 µM (inactive).
Regarding `Cc1cccc(CSC(Nc2ccc(F)cc2)=C(C#N)C#N)c1`, the AC50 was > 38 µM (inactive).
As to `CCCc1noc2c1C(c1ccoc1)C(C#N)=C(N)N2` (configuration not stated), the AC50 was > 38 µM (inactive).
On to `CC1=NN(c2ccccc2)C(=O)C1=C(C)C`, for which the AC50 is 15.9 µM.
Regarding `Cc1cc(C(=O)CN2C(=O)c3ccccc3C2=O)c(C)n1C1CC1`, the AC50 was > 38 µM (inactive).
With `Nn1cnnc1N/N=C/c1ccc(Cl)c([N+](=O)[O-])c1`, the AC50 is > 38 µM (inactive).
On to `C/C(CC(=O)NCc1ccco1)=N\NC(=O)c1ccc([N+](=O)[O-])cc1Cl`, for which the AC50 is > 38 µM (inactive).
For `CCOc1c(Br)cc(/C=C2\C(=O)N(CCC#N)N=C2C)cc1OC` the value was 11.1 µM; for `Cc1ccc(S(=O)(=O)NC(=O)Nc2ccc(N(C)C)cc2)cc1`, 31 µM.
The result for `CC(c1ccc(O)cc1)(c1ccc(O)cc1)c1ccc(CCBr)cc1` reads 11.8 µM; that for `C/C(=C/CCC(C)[C@H]1CC[C@@]2(C)C3=C(CC[C@]12C)[C@@]1(C)CCC(=O)C(C)(C)[C@@H]1CC3)C(=O)O` (some centres not stated), 10.7 µM.
Turning to `CN1CCN(C(c2ccc(Br)cc2)c2cc(Cl)c3cccnc3c2O)CC1` (configuration not stated), the half-maximal activity concentration (AC50) is 5.33 µM.
`Cc1cc(=O)n(-c2ccc(C(=O)O)cc2)[nH]1`: the half-maximal activity concentration (AC50) is 1.92 µM.
For `O=C1C(Cl)=C(N2CCC(C(=O)O)CC2)C(=O)c2ccccc21` the value was 1.41 µM; for `COC(=O)c1c(NC(=O)/C=C/C(=O)O)sc(C)c1-c1ccc(C(C)C)cc1`, 11.6 µM.
`CCOc1cc(/C=C(/C#N)C(=O)Nc2ccc(O)cc2)cc(Br)c1O`: the AC50 is > 38 µM (inactive).
For `CCO/C=C1/C(=O)N(Cc2ccccc2)C(=O)c2ccccc21`, the AC50 was > 38 µM (inactive).
The result for `O=C(O)CC1S/C(=N/N=C/c2ccc(-c3ccc(Cl)cc3[N+](=O)[O-])o2)NC1=O` (configuration not stated) reads 4.67 µM; that for `Cc1ccc(C)c(NC(=O)CSc2n[nH]c(-c3ccccn3)n2)c1`, > 38 µM (inactive); that for `COc1ccc2ccc3c(c2c1)N=CC1(O3)N(C)c2ccccc2C1(C)C` (configuration not stated), 4.49 µM.
The result for `Cc1ccc(C2CC(c3cccs3)=NN2C(=O)CSC2=NCCS2)cc1` (configuration not stated) reads 9.96 µM; that for `COc1cc(C(=O)CSc2nnc(-c3ccc(O)cc3)n2CC2CCCO2)ccc1NC(C)=O` (configuration not stated), > 38 µM (inactive); that for `COCc1[nH]nc2c1C(c1ccc(OC)cc1)C(C#N)=C(N)O2` (configuration not stated), 32.2 µM.
For `COC(=O)c1ccccc1NC(=S)NC(=O)c1ccc(C)cc1` the value was > 38 µM (inactive); for `CC1(C)Cc2ccccc2C2=NNC(=O)C2=N1`, 11 µM.
For `COc1cc(C2C(C#N)=C(N)Oc3n[nH]c(C)c32)cc2c1OCO2` (configuration not stated), the AC50 was 8.43 µM.
Take `O=C(O)/C=C\C(=O)Nc1ccc(Oc2ccc(Br)cc2)cc1`: the AC50 was 15.2 µM.
With `CCCc1[nH]nc2c1C(c1cccc(OC)c1)C(C#N)=C(N)O2` (configuration not stated), the AC50 was > 38 µM (inactive).
